{
  "source": "patent US12649717B2",
  "about": "“Cyanine-derived compound, preparation method therefor, and application thereof” (priority 2020, dated 2026)",
  "key": {"Rat cardiomyocytes": {"test_system": "Rat cardiomyocytes", "assay": "3D-laser confocal time-series imaging of labeled rat cardiomyocytes", "type": "cell-based", "settings": "250 nM, 10-15 minutes staining", "method": "Then, different microscopic imaging experiments were carried out."}, "HeLa cells": {"test_system": "HeLa cells", "assay": "Phototoxicity assay: HeLa cell viability (PI staining) after LED irradiation", "settings": "for Cell viability under 1-minute irradiation / Cell viability under 5-minute irradiation / Cell viability under 15-minute irradiation: PI viability counting after 2 hours at 37° C.", "protocol": "HeLa cells were irradiated with corresponding LED light (same light intensity for the same channel) for different periods of time under a widefield fluorescence microscope. The irradiated cells were incubated for 2 hours in a cell incubator at 37° C. Then, the cells were stained with propidium iodide (PI) for viability counting."}},
  "data": [
    {"smiles": "C[N+]1=C(/C=C/C=C/C=C2\\N(Cc3ccc(CCl)cc3)c3ccccc3C2(C)C)C(C)(C)c2ccccc21.[Cl-]", "note": "[MitoTracker Deep Red FM]", "values": [
      {"measurement": "Time sequences after which labeled cells violently contracted to death", "setting": "Rat cardiomyocytes", "value": 8, "unit": "time sequences"},
      {"measurement": "Cell viability under 1-minute irradiation", "setting": "HeLa cells", "value": 100, "unit": "%"},
      {"measurement": "Cell viability under 5-minute irradiation", "setting": "HeLa cells", "value": 0, "unit": "%"},
      {"measurement": "Cell viability under 15-minute irradiation", "setting": "HeLa cells", "value": 0, "unit": "%"}
    ]},
    {"smiles": "ClCc1ccc(C2=c3cc4c5c(c3Oc3c2cc2c6c3CCCN6CCC2)CCC[N+]=5CCC4)cc1.[Cl-]", "note": "[MitoTracker Red CMXRos]", "values": [
      {"measurement": "Cell viability under 1-minute irradiation", "setting": "HeLa cells", "value": 86.9, "unit": "%"},
      {"measurement": "Cell viability under 5-minute irradiation", "setting": "HeLa cells", "value": 0, "unit": "%"},
      {"measurement": "Cell viability under 15-minute irradiation", "setting": "HeLa cells", "value": 0, "unit": "%"}
    ]},
    {"smiles": "CC1(C)C(/C=C/C=C2/N(CCOC(=O)c3ccccc3)c3ccc4ccccc4c3C2(C)C)=[N+](CCOC(=O)c2ccccc2)c2ccc3ccccc3c21.[Br-]", "note": "[Probe 1-6-1]", "values": [
      {"measurement": "Cell viability under 1-minute irradiation", "setting": "HeLa cells", "value": 100, "unit": "%"},
      {"measurement": "Cell viability under 5-minute irradiation", "setting": "HeLa cells", "value": 95, "unit": "%"},
      {"measurement": "Cell viability under 15-minute irradiation", "setting": "HeLa cells", "value": 25, "unit": "%"}
    ]},
    {"smiles": "CC1=[N+](CCN)c2ccc3ccccc3c2C1(C)C.[Br-]", "note": "[Probe 1-6]", "values": [
      {"measurement": "Cell viability under 1-minute irradiation", "setting": "HeLa cells", "value": 100, "unit": "%"},
      {"measurement": "Cell viability under 5-minute irradiation", "setting": "HeLa cells", "value": 99, "unit": "%"},
      {"measurement": "Cell viability under 15-minute irradiation", "setting": "HeLa cells", "value": 95, "unit": "%"},
      {"measurement": "Phototoxicity relative to commercial dyes (times less phototoxic)", "setting": "HeLa cells; HeLa cells, versus MTR CMXRos, MTDR (b53 also versus non-optimized compounds of 1-6)", "value": "about 5 times"},
      {"measurement": "Phototoxicity comparison (in words)", "setting": "HeLa cells; cell viability after continuous irradiation under high light intensity", "value": "lower phototoxicity"}
    ]}
  ]
}
